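Where inhibition never reached the appropriate level, the endpoint shown equals the highest concentration tested. Otherwise, values were interpolated linearly from a five-concentration, 48-hour dose response in 96-well plates. GI50 is the concentration that inhibits growth by half.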 Calls of active or inactive are those of the source. Cut-off read from the data, not from the text of the source: active = GI50 up to about 1.1 µM and inactive = higher.
Experiments:
Experiment in all cases: NCI tumour cell line growth inhibition, 48 h
CAKI-1 = tested on: CAKI-1
IGROV-1 = tested on: IGROV-1
RXF 393 = tested on: RXF 393
HL-60 = tested on: HL-60
HOP-92 = tested on: HOP-92
U-251 = tested on: U-251
SR = tested on: SR
HOP-62 = tested on: HOP-62
HCC 2998 = tested on: HCC 2998
UACC-257 = tested on: UACC-257
SF-539 = tested on: SF-539
786-0 = tested on: 786-0
OVCAR-5 = tested on: OVCAR-5
CCRF-CEM = tested on: CCRF-CEM
COLO 205 = tested on: COLO 205
K562 = tested on: K562
UO-31 = tested on: UO-31
EKVX = tested on: EKVX

Measured: GI50

O=C(O)C1c2ccccc2C(C(=O)O)c2ccccc21 (configuration not stated)
inactive: CAKI-1 > 100 µM | IGROV-1 > 100 µM | RXF 393 > 100 µM | HL-60 > 100 µM | HOP-92 > 100 µM | U-251 > 100 µM | SR > 100 µM | HOP-62 > 100 µM | HCC 2998 > 100 µM | UACC-257 > 100 µM | SF-539 > 100 µM | 786-0 > 100 µM | OVCAR-5 > 100 µM | CCRF-CEM > 100 µM | COLO 205 > 100 µM | K562 > 100 µM | UO-31 > 100 µM

CC1CC(c2ccc(Cl)c(Cl)c2)=Nc2ccccc2S1 (configuration not stated)
inactive: CAKI-1 > 100 µM | IGROV-1 > 100 µM | RXF 393 > 100 µM | HL-60 > 100 µM | HOP-92 > 100 µM | U-251 > 100 µM | EKVX > 100 µM | SR 46 µM | HOP-62 > 100 µM | HCC 2998 > 100 µM | UACC-257 > 100 µM | SF-539 > 100 µM | 786-0 > 100 µM | OVCAR-5 > 100 µM | CCRF-CEM 41.9 µM | COLO 205 > 100 µM | K562 > 100 µM | UO-31 > 100 µM

O=C(c1cc2ccccc2[nH]1)C(O)(c1cc2ccccc2[nH]1)c1cc2ccccc2[nH]1
inactive: CAKI-1 > 246 µM | IGROV-1 > 246 µM | RXF 393 > 246 µM | HL-60 > 246 µM | HOP-92 > 246 µM | U-251 > 246 µM | EKVX > 246 µM | SR > 246 µM | HOP-62 > 246 µM | HCC 2998 > 246 µM | UACC-257 > 246 µM | SF-539 129 µM | 786-0 > 246 µM | OVCAR-5 > 246 µM | CCRF-CEM > 246 µM | COLO 205 > 246 µM | K562 > 246 µM

COc1ccc(-c2cc(O)c3cc(Cl)ccc3n2)cc1
inactive: IGROV-1 > 100 µM | RXF 393 > 100 µM | HL-60 > 100 µM | HOP-92 > 100 µM | EKVX > 100 µM | SR > 100 µM | HOP-62 > 100 µM | HCC 2998 > 100 µM | UACC-257 > 100 µM | SF-539 > 100 µM | 786-0 > 100 µM | OVCAR-5 > 100 µM | CCRF-CEM > 100 µM | COLO 205 > 100 µM | K562 > 100 µM | UO-31 > 100 µM

CC(=O)c1sc(Nc2nnc(-c3ccc(-c4nnc(Nc5nc(C)c(C(C)=O)s5)o4)cc3)o2)nc1C
inactive: CAKI-1 > 10 µM | IGROV-1 > 100 µM | RXF 393 > 100 µM | HL-60 > 100 µM | HOP-92 > 100 µM | U-251 > 100 µM | EKVX > 100 µM | SR > 100 µM | HOP-62 > 100 µM | HCC 2998 > 100 µM | UACC-257 > 100 µM | 786-0 > 100 µM | OVCAR-5 > 10 µM | CCRF-CEM > 100 µM | COLO 205 > 100 µM | K562 > 100 µM | UO-31 > 10 µM

C[n+]1c2ccccc2c(NC(CCCNC(=N)N)C(=O)O)c2ccccc21 (configuration not stated)
inactive: CAKI-1 > 100 µM | IGROV-1 > 100 µM | RXF 393 > 100 µM | HL-60 39.1 µM | HOP-92 > 100 µM | U-251 > 100 µM | EKVX > 100 µM | SR > 100 µM | HOP-62 > 100 µM | HCC 2998 > 100 µM | UACC-257 > 100 µM | SF-539 > 100 µM | 786-0 > 100 µM | OVCAR-5 > 100 µM | COLO 205 > 100 µM | K562 > 100 µM | UO-31 75.2 µM

O=C1OC(c2ccccc2)=N/C1=C/NC(Cc1c[nH]c2ccccc12)C(=O)O (configuration not stated)
inactive: IGROV-1 > 100 µM | RXF 393 > 100 µM | HL-60 > 100 µM | HOP-92 > 100 µM | U-251 > 100 µM | EKVX > 100 µM | SR > 100 µM | HOP-62 > 100 µM | HCC 2998 > 100 µM | UACC-257 > 100 µM | SF-539 > 100 µM | 786-0 > 100 µM | OVCAR-5 > 100 µM | CCRF-CEM > 100 µM | COLO 205 > 100 µM | K562 > 100 µM | UO-31 > 100 µM

O=c1cc(-c2ccc(Cl)cc2)oc2cc(OCCCOc3ccc4c(=O)cc(-c5ccc(Cl)cc5)oc4c3)ccc12
inactive: CAKI-1 > 100 µM | IGROV-1 > 100 µM | RXF 393 > 100 µM | HL-60 > 100 µM | HOP-92 > 100 µM | U-251 > 100 µM | EKVX > 100 µM | SR > 100 µM | HOP-62 > 100 µM | HCC 2998 > 100 µM | UACC-257 > 100 µM | SF-539 > 100 µM | 786-0 > 100 µM | OVCAR-5 > 100 µM | CCRF-CEM > 100 µM | COLO 205 > 100 µM | K562 > 100 µM

O=C1NC2CCC(C2)C1c1ccccc1 (configuration not stated)
inactive: IGROV-1 > 100 µM | RXF 393 > 100 µM | HL-60 > 100 µM | U-251 > 100 µM | EKVX > 100 µM | SR > 100 µM | HCC 2998 > 100 µM | SF-539 > 100 µM | 786-0 > 100 µM | OVCAR-5 > 100 µM | CCRF-CEM > 100 µM | COLO 205 > 100 µM | K562 > 100 µM | UO-31 > 100 µM

CNc1ccc2ncccc2c1[N+](=O)[O-]
inactive: CAKI-1 > 100 µM | IGROV-1 > 100 µM | RXF 393 > 100 µM | HL-60 > 100 µM | HOP-92 > 100 µM | EKVX > 100 µM | SR > 100 µM | HOP-62 > 100 µM | HCC 2998 > 100 µM | UACC-257 > 100 µM | SF-539 > 100 µM | 786-0 > 100 µM | OVCAR-5 > 100 µM | CCRF-CEM > 100 µM | K562 > 100 µM | UO-31 > 100 µM

CN1CCc2cc(O)c3cc2C1Cc1ccc(cc1)Oc1cc(ccc1O)CC1c2c(cc4c(c2O3)OCO4)CCN1C (configuration not stated)
inactive: IGROV-1 25.6 µM | RXF 393 11.2 µM | HL-60 16.3 µM | U-251 30.1 µM | EKVX 18.1 µM | SR 28.8 µM | HCC 2998 19.5 µM | SF-539 17.3 µM | 786-0 58.2 µM | OVCAR-5 27 µM | CCRF-CEM 27.7 µM | COLO 205 13.5 µM | K562 17.2 µM | UO-31 1.6 µM

O=C(CCc1nnc2s/c(=C\c3ccccc3Cl)c(=O)n12)Nc1cc(Cl)ccc1Cl
inactive: CAKI-1 > 100 µM | IGROV-1 > 100 µM | RXF 393 > 100 µM | HL-60 > 100 µM | HOP-92 > 100 µM | U-251 > 100 µM | EKVX > 100 µM | SR > 100 µM | HOP-62 > 100 µM | HCC 2998 > 100 µM | UACC-257 > 100 µM | SF-539 > 100 µM | 786-0 > 100 µM | OVCAR-5 > 100 µM | CCRF-CEM > 100 µM | K562 > 100 µM | UO-31 > 100 µM

Reference: ChEMBL document CHEMBL1201862, “PubChem BioAssay data set” (2004)
